Data: patent publication US7172772B2, “Herbal composition for gastrointestinal disorders” (Council of Scientific & Industrial Research, priority 2003, dated 2007)
Several values for one entry are separate records, joined by “and”; a condition that tells them apart may be missing. Equal entries are not always repeated. Structures can show the parent of a compound that is named as a salt. Marks after values point to notes of the source that are not given here.

What was measured:
[1] = system: indomethacin induced acute gastric ulcers in rats; test: Indomethacin induced acute gastric ulcers (Table 4); type: in vivo; conditions: 50 mg/kg
Protocol: To assess the efficacy of different formulations against the indomethacin induced gastric ulcer different doses (25–100 mg kg^−1, p.o.) of formulations were administered to groups of 10 mice for each dose, while one group of the same number of mice served as control and the
The results of Table 4 represents that there is a significant and dose dependent anti ulcer activity and percentage ratio ranges of protection from 27.03 to 75.38.

[2] = system: cysteamine induced duodenal ulcers in rats; test: Cysteamine induced duodenal ulcers (Table 5); type: in vivo; conditions: 50 mg/kg
Description: The efficacy is compared with the known standard synthetic drug Ranitidine for treatment of. […] Where as the formulation F5 contains […]. indica, Cinamommum sp. and Buchanania lanzan.

[3] = system: castor oil-stimulated gastrointestinal transit in rats; test: Small intestinal transit, charcoal meal (Table 3); type: in vivo; conditions: 0.1 mg kg^−1 IP
Protocol: Animals were divided into four groups of six rats each and each animal was given orally 1 ml of charcoal meal (5% activated charcoal suspended in 1% CMC) 60 min after an oral dose of drugs or vehicle. Group I was administered with 1% CMC (10 ml kg^−1) and animals in the other groups received various formulations. Another group received atropine sulfate (0.1 mg kg^−1, IP) as standard drug. After 30 min animals were killed by cervical dislocation and the intestine was removed without stretching and placed lengthwise on moist filter paper. The length of the intestine (pyloric sphincter to caecum) and the distance travelled by the charcoal as a percentage of that length were evaluated for each animal, and group means were compared and expressed as percentage inhibition (Lutterodt, J. Ethnopharmacol. 25, 1989, 235–247). […] Therefore the dose dependent effect of the formulation was similar to the synthetic drug atropine. But long use of atropine completely blocks the secretions it is an adverse effect.

[4] = system: castor oil induced diarrhea in rats; test: Castor oil induced diarrhea / defecation, total faecal matter over 4 h (Table 1); type: in vivo; conditions: 5.0 mg kg^−1 p.o.
Protocol: Groups of six mice each were placed individually in separate cages with filter papers at the bottom. Different doses of the extracts were administered orally to different groups. The non-specific antidiarrhoeal reference drug diphenoxylate HCl (5.0 mg kg^−1, p.o.) and 1% CMC ([…], p.o.) were administered to two groups and later served as controls (Melo et al, J. Pharm. Pharmacol. 40 (1988), […]). The total number of the faecal matter in each group was assessed every hour for the next 4 h. Percent reduction in the total number of faeces in the treated groups was obtained by comparison with control animals.
The method of Awouters et al. (J. Pharm. Pharmacol, 30, 1978, 41–45) as modified by Nwodo and Alumanah (J. Ethnopharmacol, 31, 1991, 395–398) was used. Briefly, rats fasted for 24 h were randomly allocated to five groups of six animals each. One group received 1% CMC (10 mL kg^−1, p.o.), other groups received orally the different dosage of drug extract. Another group given diphenoxylate HCl (5.0 mg kg^−1, p.o.) as suspension. After 60 min each animal was given with 2 ml of castor oil by orogastric cannula, and placed in a separate cage and observed for 4 h defecation. Transparent plastic dishes were placed beneath each cage and the characteristic diarrhoeal droppings were noted. The total number of the faecal matter in each group was assessed every hour for the next 4 h. […]

[5] = system: human carcinoma cells of the naso-pharynx; conditions: cell culture; cited from earlier work

## CNC(=C[N+](=O)[O-])NCCSCc1ccc(CN(C)C)o1 [Ranitidine]
[1]
  % Curative ratio: 82.20%
  Ulcer index: 0.81 ± 0.01^b
[2]
  % Protection: 77% and 77.9%
  Ulcer incidence %: 20%
  Ulcer incidence No: 2/10
  Ulcer score Total lesion area: 1.06 ± 0.17^c mm^2

## CN1[C@@H]2CC[C@H]1CC(OC(=O)C(CO)c1ccccc1)C2.CN1[C@@H]2CC[C@H]1CC(OC(=O)C(CO)c1ccccc1)C2.O=S(=O)(O)O (some centres unmarked) [Atropine sulphate, atropine sulfate]
[3]
  Mean distance travelled by charcoal: 26.5 ± 2.6^b cm
  Reduction (%): 68.33%

## CCOC(=O)C1(c2ccccc2)CCN(CCC(C#N)(c2ccccc2)c2ccccc2)CC1 [Diphenoxylate HCl, diphenoxylate HCl]
[4]; counted over 4 h, six rats per group
  Total no of faecal matter: 16
[4]; vs control 1% CMC
  % Reduction (Inhibition): 75.38%

## COc1cc2c3c(O)c1OCc1ccc(cc1)C[C@@H]1c4c(cc(OC)c(OC)c4Oc4ccc(cc4)CC3=NCC2)CCN1C [Cissampareine]
[5]
  inhibitory activity against human carcinoma cells of the naso-pharynx: significant and reproducible inhibitory activity
